Assay [1] deals with anti-IDH1R132H antibody (H09). The experiment in a line: IDH1R132H and IDH1 wildtype peptide coated ELISA. The class given is binding, mouse. Conditions: 10 μg peptide per well; H09 1:1000; OD at 450 nm (FIG. 1C). How it is done: ELISA plates (Costar) were coated with IDH1R132H and IDH1wt p118-132, p120-134, p122-136, p124-138, p126-140, p128-142, p130-144, p132-146, p123-142 (10 μg per well in PBS), washed with PBS 0.05% Tween 20, and blocked with 3% FBS in PBS 0.05% Tween 20. As negative controls, MOG p35-55 was used at equal concentrations and peptide diluent PBS 10% DMSO was used at equal volume. As primary antibody monoclonal mouse anti-IDH1R132H (1:1000, H09, Dianova) was used. HRP-conjugated secondary antibody was sheep anti-mouse IgG (1:5000, Amersham). HLA-DRB1*01:01 MHC class II tetramer bound to IDH1R132H p123-142 and HLA-DRB1*01:01 MHC class II tetramer control tetramer bound to CLIP were kindly provided by NIH tetramer core facility and used 1:200 during pre-incubation with H09 for competitive ELISA. Substrate was TMB (ebioscience) and reaction was stopped with 1M H2SO4. OD at 450 nm was measured with an ELISA reader (Thermo Fisher).
On the technique in general: ELISA stands for enzyme-linked immunosorbent assay.

The target of assay [2] is HLA-DR in patients' glioma tissue. The experiment in a line: cell-based or functional assay.

Ends that are not written are not given here.

Turning to SGWVKPIIIGHHAYG [SGWVKPIIIGHHAYG], in assay [1], the “binding of anti-IDH1R132H antibody to coated peptide” value (from here on “binding of anti-IDH1R132H antibody”) is on record as “binds”.
On the same count and under the same terms, with WVKPIIIGHHAYGDQ [WVKPIIIGHHAYGDQ] the entry was “binds”.
For KPIIIGHHAYGDQYR [KPIIIGHHAYGDQYR], the “binding of anti-IDH1R132H antibody” value in assay [1] is “binds”.
Regarding “GWVKPIIIGHHAYGDQYRAT (listed as Homo sapiens) [p123-p142]”, the “binding of anti-IDH1R132H antibody” value in assay [1] is recorded as “binds”.
Substance “IDH1R132H (endogenous, in human glioma tissue) (from UniProt O75874 2-414)” came in with a positivity in the IDH1R132H-MHC class II PLA system (glioma tissue, positivity set to 20 PLA signals per high power field) (of 9 IDH1R132H+ gliomas) in assay [2] of 5.
